Patent US11091428B2 (HAPLOGEN GMBH, priority 2016, dated 2021)

Key:
[1] = test system: picornaviruses (CVB1, HRV-A2, HRV-A23, EV-68); assay: Anti-picornavirus cytopathic effect (CPE) reduction assay on HeLa H1 cells; format: cell-based; conditions: Enterovirus B, HeLa H1, 48 h, HeLa H1 cells, 48 h, category from averaging the EC50 values from four picornaviruses (CVB1, HRV-A2, HRV-A23, EV68); read-out: EC50 values of the compounds determined in the anti-picornavirus assay
Method in brief: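 Cytopathic-effect protection: EC50 from non-linear regression of cell viability (CellTiterBlue, 560/590 nm) 48 h post-infection, scaled between infected and mock-infected vehicle wells. Compound dilutions added to HeLa H1 cells 2 h before virus (MOI causing complete CPE within 2 days), in DMEM + 2% FBS; categories average the four viruses.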

PLA2G16 = biological target: T1, PLA2G16 (Homo sapiens, UniProt P53816); assay: Enzyme activity assay for PLA2G16 (Red/Green BODIPY PC-A2 fluorescence); format: biochemical; conditions: His-tagged PLA2G16, 4 min pre-incubation, 2 nM to 50 μM; read-out: IC50 values of the compounds determined in the enzyme activity assay for PLA2G16
T1 construct: Hexa-His (N); made in house; host or cells: E. coli BL21(DE3)
T1 sequence (P53816 1-162): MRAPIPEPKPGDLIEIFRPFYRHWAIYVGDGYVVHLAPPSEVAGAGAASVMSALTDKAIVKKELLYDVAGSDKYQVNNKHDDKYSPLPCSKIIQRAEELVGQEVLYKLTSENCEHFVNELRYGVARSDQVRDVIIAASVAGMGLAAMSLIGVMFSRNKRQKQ
Method in brief: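 IC50 from non-linear fits of fluorescence rise (480/530 nm, 10 min) after adding Red/Green BODIPY PC-A2 mixed with DOPC/DOPG/cholesterol liposomes. Recombinant His-tagged human enzyme, bacterially expressed, was first exposed to inhibitor (2 nM–50 μM final) for 4 min in 50 mM Tris pH 8.5, 100 mM NaCl, 5 mM glutathione.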

| SMILES | EC50 [1] | IC50 (PLA2G16) |
| --- | --- | --- |
| O=C(NC1CCN(C(=O)NC2CCC2)CC1)C(=O)[C@H]1CCC(=O)N1Cc1ccccc1 [FP 324, 4-{2-[(2R)-1-Benzyl-5-oxopyrrolidin-2-yl]-2-oxoacetamido}-N-cyclobutylpiperidine-1-carboxamide] | < 1 µM | < 1 µM |
| NC(=O)c1cccc(CN2C(=O)CCC2C(=O)C(=O)NCC2CC2)c1 (stereo not drawn) [FP 250, 3-[(2-{[(Cyclopropylmethyl)carbamoyl]carbonyl}-5-oxopyrrolidin-1-yl)methyl]benzamide] | 1 to 10 µM | < 1 µM |
| O=CN(Cc1ccccc1)[C@@H](Cc1cn(C(c2ccccc2)(c2ccccc2)c2ccccc2)cn1)C(=O)C(=O)NCC1CCCCC1 [FP 116, (3S)-3-(N-Benzylformamido)-N-(cyclohexylmethyl)-2-oxo-4-[1-(triphenylmethyl)-1H-imidazol-4-yl]butanamide] | < 1 µM | < 1 µM |
| CC(NC(=O)c1ccccc1F)C(=O)C(=O)NCC1CC1 (stereo not drawn) [FP 164, N-(Cyclopropylmethyl)-3-[(2-fluorophenyl)formamido]-2-oxobutanamide] | 1 to 10 µM | < 1 µM |
| COc1ccccc1N(C=O)C(C)C(=O)C(=O)NCc1c(C)cccc1C (stereo not drawn) [FP 99, N-[(2,6-Dimethylphenyl)methyl]-3-[N-(2-methoxyphenyl)formamido]-2-oxobutanamide] | 1 to 10 µM | < 1 µM |
| O=CN(Cc1ccccc1)[C@@H](Cc1c[nH]cn1)C(=O)C(=O)NCC1CCCCC1 [FP 118, (3S)-3-(N-Benzylformamido)-N-(cyclohexylmethyl)-4-(1H-imidazol-4-yl)-2-oxobutanamide] | 1 to 10 µM | < 1 µM |
| CC(C)CC(C(=O)C(=O)NCC1CC1)N(C=O)C[C@H]1CCOC1 (stereo partly drawn) [FP 65, N-(Cyclopropylmethyl)-5-methyl-2-oxo-3-(N-{[(3R)-oxolan-3-yl]methyl}formamido) hexanamide] | 1 to 10 µM | < 1 µM |
| CC(C)(C#N)CNC(=O)C(=O)[C@H]1CCC(=O)N1Cc1ccccc1 [FP 263, 2-[(2R)-1-Benzyl-5-oxopyrrolidin-2-yl]-N-(2-cyano-2,2-dimethylethyl)-2-oxoacetamide] | 1 to 10 µM | < 1 µM |
| CC(C)NC(=O)[C@H]1C[C@@H](NC(=O)C(=O)[C@H]2CCC(=O)N2Cc2ccccc2)C1 [FP 305, (1 s,3s)-3-{2-[(2R)-1-Benzyl-5-oxopyrrolidin-2-yl]-2-oxoacetamido}-N-(propan-2-yl)cyclobutane-1-carboxamide] | 1 to 10 µM | < 1 µM |
| CC(NC(=O)c1ccccc1Br)C(=O)C(=O)NCC1CC1 (stereo not drawn) [FP 166, 3-[(2-Bromophenyl)formamido]-N-(cyclopropylmethyl)-2-oxobutanamide] | 1 to 10 µM | < 1 µM |
| COCC(=O)N(c1ccccc1OC)C(C)C(=O)C(=O)NCc1cccc(Cl)c1 (stereo not drawn) [FP 175, N-[(3-Chlorophenyl)methyl]-3-[2-methoxy-N-(2-methoxyphenyl)acetamido]-2-oxobutanamide] | 1 to 10 µM | < 1 µM |
| O=C(N[C@@H]1CCCCNC1=O)C(=O)[C@H]1CCC(=O)N1Cc1ccccc1 [FP 300, 2-[(2R)-1-Benzyl-5-oxopyrrolidin-2-yl]-2-oxo-N-[(3R)-2-oxoazepan-3-yl]acetamide] | 1 to 10 µM | < 1 µM |
| CC(C)CC(=O)N1CC(NC(=O)C(=O)[C@H]2CCC(=O)N2Cc2ccccc2)C1 [FP 317, 2-[(2R)-1-Benzyl-5-oxopyrrolidin-2-yl]-N-[1-(3-methylbutanoyl)azetidin-3-yl]-2-oxoacetamide] | 1 to 10 µM | < 1 µM |
| CC(C)CNC(=O)C(=O)C(C)N(C=O)CC(C)(C)C (stereo not drawn) [FP 45, 3-[N-(2,2-Dimethylpropyl)formamido]-N-(2-methylpropyl)-2-oxobutanamide] | < 1 µM | < 1 µM |
| O=C(NCC1CC1)C(=O)C1CCC(=O)N1Cc1ccc(Cl)cc1 (stereo not drawn) [FP 203, 2-{1-[(4-Chlorophenyl)methyl]-5-oxopyrrolidin-2-yl}-N-(cyclopropylmethyl)-2-oxoacetamide] | < 1 µM | < 1 µM |
| COc1ccccc1OC(C)C(=O)C(=O)NC(C)C (stereo not drawn) [FP 135, 3-(2-Methoxyphenoxy)-2-oxo-N-(propan-2-yl)butanamide] | 1 to 10 µM | < 1 µM |
| N#Cc1ccc(CN2C(=O)CCC2C(=O)C(=O)NCC2CC2)cc1 (stereo not drawn) [FP 233, 2-{1-[(4-Cyanophenyl)methyl]-5-oxopyrrolidin-2-yl}-N-(cyclopropylmethyl)-2-oxoacetamide] | 1 to 10 µM | < 1 µM |
| CC(C(=O)C(=O)NCCOc1ccccc1)N(C=O)C1CCCCC1 (stereo not drawn) [FP 109, 3-(N-Cyclohexylformamido)-2-oxo-N-(2-phenoxyethyl)butanamide] | < 1 µM | < 1 µM |

| SMILES | EC50 [1] | IC50 (PLA2G16) |
| --- | --- | --- |
| COc1ccccc1N(C=O)C(CC(C)C)C(=O)C(=O)NCc1cccc(Cl)c1 (stereo not drawn) [FP 13, N-[(3-Chlorophenyl)methyl]-3-[N-(2-methoxyphenyl)formamido]-5-methyl-2-oxohexanamide] | < 1 µM | < 1 µM |
| CCC(NC(=O)CN1CCCCC1)C(=O)C(=O)NCC1CCCCC1 (stereo not drawn) [FP 213, N-(Cyclohexylmethyl)-2-oxo-3-[2-(piperidin-1-yl)acetamido]pentanamide] | 1 to 10 µM | < 1 µM |
| COc1ccccc1N(C=O)C(C)C(=O)C(=O)NCc1ccc(Cl)cc1 (stereo not drawn) [FP 91, N-[(4-Chlorophenyl)methyl]-3-[N-(2-methoxyphenyl)formamido]-2-oxobutanamide] | < 1 µM | < 1 µM |
| CC(NS(=O)(=O)Cc1ccccc1)C(=O)C(=O)NCC1CC1 (stereo not drawn) [FP 188, N-(Cyclopropylmethyl)-2-oxo-3-(phenylmethanesulfonamido)butanamide] | > 10 µM | < 1 µM |
| O=C(NCC1CC1)C(=O)[C@H]1CCC(=O)N1Cc1ccccc1 [FP 224, 2-[(2R)-1-Benzyl-5-oxopyrrolidin-2-yl]-N-(cyclopropylmethyl)-2-oxoacetamide] | < 1 µM | < 1 µM |
| O=C(NC1CC1)C(=O)C1CCC(=O)N1Cc1ccc(Cl)cc1F (stereo not drawn) [FP 234, 2-{1-[(4-Chloro-2-fluorophenyl)methyl]-5-oxopyrrolidin-2-yl}-N-cyclopropyl-2-oxoacetamide] | 1 to 10 µM | < 1 µM |
| O=C(COCC1CCCCC1)C(=O)NCC1CC1 [FP 129, 3-(Cyclohexylmethoxy)-N-(cyclopropylmethyl)-2-oxopropanamide] | > 10 µM | < 1 µM |
| CC(=O)NCCCCCCNC(=O)C(=O)C1CCC(=O)N1Cc1ccc(Cl)cc1 (stereo not drawn) [FP 330, 2-{1-[(4-Chlorophenyl)methyl]-5-oxopyrrolidin-2-yl}-N-(6-acetamidohexyl)-2-oxoacetamide] | 1 to 10 µM | < 1 µM |
| CCC(=O)N(c1ccccc1OC)C(C)C(=O)C(=O)NCc1cccc(Cl)c1 (stereo not drawn) [FP 141, N-[(3-Chlorophenyl)methyl]-3-[N-(2-methoxyphenyl)propanamido]-2-oxobutanamide] | 1 to 10 µM | < 1 µM |
| CCNC(=O)C(=O)[C@H]1CCC(=O)N1Cc1ccccc1 [FP 265, 2-[(2R)-1-Benzyl-5-oxopyrrolidin-2-yl]-N-ethyl-2-oxoacetamide] | < 1 µM | < 1 µM |
| Cc1noc(CNC(=O)C(=O)[C@H]2CCC(=O)N2Cc2ccccc2)n1 [FP 287, 2-[(2R)-1-Benzyl-5-oxopyrrolidin-2-yl]-N-[(3-methyl-1,2,4-oxadiazol-5-yl)methyl]-2-oxoacetamide] | 1 to 10 µM | < 1 µM |
| CCCC(NS(=O)(=O)c1ccccc1)C(=O)C(=O)NCC1CC1 (stereo not drawn) [FP 217, 3-Benzenesulfonamido-N-(cyclopropylmethyl)-2-oxohexanamide] | 1 to 10 µM | < 1 µM |
| CCCC(=O)N(c1ccccc1OC)C(C)C(=O)C(=O)NCc1cccc(Cl)c1 (stereo not drawn) [FP 143, N-[(3-Chlorophenyl)methyl]-3-[N-(2-methoxyphenyl)butanamido]-2-oxobutanamide] | 1 to 10 µM | < 1 µM |
| COc1ccc(CNC(=O)C(=O)C(C)N(C=O)c2ccccc2OC)cc1 (stereo not drawn) [FP 92, 3-[N-(2-Methoxyphenyl)formamido]-N-[(4-methoxyphenyl)methyl]-2-oxobutanamide] | 1 to 10 µM | < 1 µM |
| CC(C)NC(=O)C(=O)C(C)OC1CCCCC1 (stereo not drawn) [FP 125, 3-(Cyclohexyloxy)-2-oxo-N-(propan-2-yl)butanamide] | 1 to 10 µM | 1 to 10 µM |
| CC(C)NC(=O)C(=O)[C@H]1CCC(=O)N1Cc1ccccc1 [FP 238, 2-[(2R)-1-Benzyl-5-oxopyrrolidin-2-yl]-2-oxo-N-(propan-2-yl)acetamide] | < 1 µM | < 1 µM |
| C[C@@H]1CC(=O)N(Cc2ccccc2)[C@@H]1C(=O)C(=O)NCC1CC1 (single isomer, unassigned) [FP 335] | 1 to 10 µM | < 1 µM |
| CC(C(=O)C(=O)NCC1CC1)N(Cc1ccccc1)S(C)(=O)=O (stereo not drawn) [FP 222, 3-(N-Benzylmethanesulfonamido)-N-(cyclopropylmethyl)-2-oxobutanamide] | > 10 µM | < 1 µM |
